Test results: US6518278B1, “Carcinostatic substance for compatible administration, process of administrating same and process of rapidly inspecting same” (Debio Pharm S.A., priority 1994, dated 2003)
Where “and” joins values, the source holds several entries; their conditions need not be identical. Equal values may be shown once. Entries after “also recorded” stand apart in the source; their conditions may differ.

Test system: human leutecyte strain cell (RPMI-8402)
Assay: Extinction effect of compatible administration of l-OHP and a compatible agent on tumor cells (compatible efficiency OE)
Format: cell-based
Conditions: for Compatible Effects of l-OHP and Compatible Agent, Simultaneous Administration: both added day 1
Experimental: In the evaluation of the extinction effect of the tumor cells of the respective combinations, a pure extinction effect produced by the compatible administration of the compatible agent and the l-OHP is calculated by subtracting an extinction effect of a control (no carcinostatic substance is employed).
The compatibly administration effect is calculated by employing an Equation (1) described later. When the value (%) calculated by this Equation is between 85 and 115%, the compatible administration effect is evaluated to be an additive effect. When the value is below 85%, it is evaluated to be below the additive effect. When the value is over 115%, it is evaluated to be a synergistic effect, ±15% is a reliability limit or a measurement error.
A target tumor cell was a human leutecyte strain cell (RPMI-8402 of Gibuko K.K.). To these cells was added blood serum of a cow embryo (15%, Gibuko K.K.) to prepare a cell floating liquid of which the number of the cells was 10^6/ml in a cultivation bottle (tradename; Sumiron of Sumitomo Bakelite o., Ltd.) having a volume of 6 ml. A plenty of the cultivation bottles having the cell floating liquid therein were prepared, and the following experiments were conducted while selecting one kind of a compatible agent among cisplatin, 5-FU, irinotecane, adriamycin, etoposide, mitomycin, mitoxantrone, bleomycin, vincristin and vindecin. The time schedules of the controls (no addition of medicines, addition of only the l-OHP and addition of only a compatible agent, and specified in the below items (1) to (4)) and of the compatible administration of the compatible agent and the l-OHP are shown in FIG. 10.
(1) No medicine was added (control).
(2) Only the l-OHP was added at a second day.
(3) A large amount of compatible agents were added at a first day ([…] of the cisplatin, 10 μg/ml of the 5-FU, 0.05 μg/ml of the adriamycin and 1 μg/ml of the etoposide, and for the comparison purpose, 0.05 μg/ml of the vincristin and 0.06 μg/ml of the vindecin). The adding amount of the irinotecano was fixed to 10 μg/ml, and the addition amount of the l-OHP was 5 μg/ml.
(4) A small amount of compatible agents were added at a first day (0.5 μg/ml of the cisplatin, 5 μg/ml of the 5-FU, 0.01 μg/ml of the adriamycin and 0.5 μg/ml of the etoposide, and for the comparison purpose, 0.01 μg/ml of the vincristin and 0.01 μg/ml of the vindecin). The adding amount of the irinotecane was fixed to 10 μg/ml, and the addition amount of the l-OHP was 1 μg/ml.
(5) The l-OHP and a large amount (the same as that of the above item (3) and so forth in the following items) of the compatible agents were simultaneously added at a first day.
(6) The l-OHP and a small amount (the same as that of the above item (4) and so forth in the following items) of the compatible agents were simultaneously added at a first day.
(7) The l-OHP was added at a first day and a large amount of the compatible agents were added at a second day.
(8) The l-OHP was added at a first day and a small amount of the compatible agents were added at a second day.
(9) The l-OHP was added at a first day and a large amount of the compatible agents were added at a third day.
(10) The l-OHP was added at a first day and a small amount of the compatible agents were added at a third day.
(11) The l-OHP was added at a first day and a large amount of the compatible agents were added at a fourth day.
(12) The l-OHP was added at a first day and a small amount of the compatible agents were added at a fourth day.
(13) A large amount of the compatible agents were added at a first day and the l-OHP was added at a second day.
(14) A small amount of the compatible agents were added at a first day and the l-OHP was added at a second day.
(15) A large amount of the compatible agents were added at a first day and the l-OHP was added at a third day.
(16) A small amount of the compatible agents were added at a first day and the l-OHP was added at a third day.

[1] = larger dosage of compatible agent (μg/ml: cisplatin 1, 5-FU 10, irinotecane 10, adriamycin 0.05, vincristin 0.05, vindecin 0.05, etoposide 1, bleomycin 10, mitoxantrone 0.1, mitomycine 1), l-OHP 1 μg/ml (5 μg/ml with irinotecane) added day 1
[2] = larger dosage of compatible agent (μg/ml: cisplatin 1, 5-FU 10, irinotecane 10, adriamycin 0.05, vincristin 0.05, vindecin 0.05, etoposide 1, bleomycin 10, mitoxantrone 0.1, mitomycine 1), l-OHP 1 μg/ml (5 μg/ml with irinotecane)
[3] = larger dosage of compatible agent added day 1 (μg/ml: cisplatin 1, 5-FU 10, irinotecane 10, adriamycin 0.05, vincristin 0.05, vindecin 0.05, etoposide 1, bleomycin 10, mitoxantrone 0.1, mitomycine 1), l-OHP 1 μg/ml (5 μg/ml with irinotecane)
[4] = smaller dosage of compatible agent (μg/ml: cisplatin 0.5, 5-FU 5, irinotecane 10, adriamycin 0.01, vincristin 0.01, vindecin 0.01, etoposide 0.5, bleomycin 1, mitoxantrone 0.05, mitomycine 0.5), l-OHP 1 μg/ml added day 1
[5] = smaller dosage of compatible agent (μg/ml: cisplatin 0.5, 5-FU 5, irinotecane 10, adriamycin 0.01, vincristin 0.01, vindecin 0.01, etoposide 0.5, bleomycin 1, mitoxantrone 0.05, mitomycine 0.5), l-OHP 1 μg/ml
[6] = smaller dosage of compatible agent added day 1 (μg/ml: cisplatin 0.5, 5-FU 5, irinotecane 10, adriamycin 0.01, vincristin 0.01, vindecin 0.01, etoposide 0.5, bleomycin 1, mitoxantrone 0.05, mitomycine 0.5), l-OHP 1 μg/ml

Compound | compatible administration effect with l-OHP, summary in words | Compatible Effects of l-OHP and Compatible Agent, Time Lag Administration, Addition Administration of Compatible Agent day 2 [1] | Compatible Effects of l-OHP and Compatible Agent, Time Lag Administration, Addition Administration of Compatible Agent day 3 [1] | Compatible Effects of l-OHP and Compatible Agent, Time Lag Administration, Addition Administration of Compatible Agent day 4 [1] | Compatible Effects of l-OHP and Compatible Agent, Simultaneous Administration [2] | Compatible Effects of l-OHP and Compatible Agent, Time Lag Administration, Addition Administration of l-OHP day 2 [3] | Compatible Effects of l-OHP and Compatible Agent, Time Lag Administration, Addition Administration of l-OHP day 3 [3] | Compatible Effects of l-OHP and Compatible Agent, Time Lag Administration, Addition Administration of l-OHP day 4 [3] | Compatible Effects of l-OHP and Compatible Agent, Time Lag Administration, Addition Administration of Compatible Agent day 2 [4] | Compatible Effects of l-OHP and Compatible Agent, Time Lag Administration, Addition Administration of Compatible Agent day 3 [4] | Compatible Effects of l-OHP and Compatible Agent, Time Lag Administration, Addition Administration of Compatible Agent day 4 [4] | Compatible Effects of l-OHP and Compatible Agent, Simultaneous Administration [5] | Compatible Effects of l-OHP and Compatible Agent, Time Lag Administration, Addition Administration of l-OHP day 2 [6] | Compatible Effects of l-OHP and Compatible Agent, Time Lag Administration, Addition Administration of l-OHP day 3 [6] | Compatible Effects of l-OHP and Compatible Agent, Time Lag Administration, Addition Administration of l-OHP day 4 [6] | compatible administration effect with l-OHP, summary in words (listed as 6-FU) | effect as % of the expected value (compatible efficiency) (simultaneous administration with l-OHP, which dosage gives which value is not given)
COc1cccc2c1C(=O)c1c(O)c3c(c(O)c1C2=O)C[C@@](O)(C(=O)CO)C[C@@H]3O[C@H]1C[C@H](N)[C@H](O)[C@H](C)O1 [adriamycin] | the additive effect or the synergistic effect regardless of the administration method and the dosage in almost all the cases; also recorded: synergistic effects can be obtained in almost all the combinations when the l-OHP is added later | Δ (Δ: Below Additive Effect) | ◯ (◯: Additive Effect) | ◯ (◯: Additive Effect) | ◯ (◯: Additive Effect) | ◯ (◯: Additive Effect) | • (•: Synergistic Effect) | • (•: Synergistic Effect) | Δ (Δ: Below Additive Effect) | • (•: Synergistic Effect) | ◯ (◯: Additive Effect) | ◯ (◯: Additive Effect) | • (•: Synergistic Effect) | ◯ (◯: Additive Effect) | • (•: Synergistic Effect) | – | –
O=c1[nH]cc(F)c(=O)[nH]1 [5-FU, 5-fluorouracil] | twice an expected value; also recorded: synergistic effects can be obtained in almost all the administration conditions | • (•: Synergistic Effect) | • (•: Synergistic Effect) | • (•: Synergistic Effect) | • (•: Synergistic Effect) | • (•: Synergistic Effect) | • (•: Synergistic Effect) | • (•: Synergistic Effect) | ◯ (◯: Additive Effect) | • (•: Synergistic Effect) | • (•: Synergistic Effect) | • (•: Synergistic Effect) | • (•: Synergistic Effect) | ◯ (◯: Additive Effect) | • (•: Synergistic Effect) | the additive effect or the synergistic effect regardless of the administration method and the dosage in almost all the cases | 180% and 150%
